Test results published in patent publication US7563801B2, “Pharmaceutical formulations: salts of 8-[{1-(3,5-Bis-(trifluoromethyl)phenyl)-ethoxy}-methyl]-8-phenyl-1,7-diaza-spiro[4.5]decan-2-one and treatment methods using the same” (Schering Corporation, priority 2006, dated 2009).

Assays:
[1] = Single dose rising study of the encapsulated formulation in healthy human volunteers, pharmacokinetics; assay type: in vivo; settings: for AUC / Cmax / Tmax / half-life: plasma, oral capsule; for AUC: 0 to 72 hours post administration, read-out: AUC (area under the plasma concentration time curve); for Cmax: read-out: Cmax (mean maximum plasma concentration); for Tmax: read-out: Tmax (median time of maximum plasma concentration); for half-life: read-out: Half Life T ½ (converted)
Procedure: Another aspect of the present invention is the provision of a pharmaceutical formulation comprising a hydrochloride monohydrate salt of Formula II in a capsule oral dosage form which has a Pharmacokinetic (PK) profile obtained under single dose rising rate study conditions in accordance with Table VIII (average of eight study subjects).
Blood samples were collected from each volunteer at predose (hour 0) and 0.25, 0.5, 0.75, 1, 1.5, 2, 3, 4, 6, 8, 12, 16, 24, 36, 48, and 72 hours. The serum drug levels of the volunteers receiving active drug are present graphically in FIG. 2.

[2] = Second study: 10, 25 or 50 mg per day for 10 days in healthy volunteers, pharmacokinetics on days 1 and 10; assay type: in vivo, human; settings: for Cmax / AUC / Tmax / half-life: plasma, oral; for Cmax: read-out: Cmax (mean maximum plasma concentration); for AUC: footnote: 0 to 72 hours post administration, read-out: AUC (area under the plasma concentration time curve); for Tmax: read-out: Tmax (median time of maximum plasma concentration); for half-life: read-out: Half Life T ½ (converted)
Procedure: In a second study, three cohorts of 8 healthy volunteers each were administered 10, 25, or 50 mg per day for each of 10 days. Administration in every case followed a 10 hour fast. Blood samples were collected from each volunteer at predose (hour 0) and 0.25, 0.5, 0.75, 1, 1.5, 2, 3, 4, 6, 8, 12, 16, 24, 36, 48, and 72 hours on each of days 1 and 10.

[3] = human, 10 mg per day, human, 10 mg per day, Day 1
[4] = human, 10 mg per day, human, 10 mg per day, Day 10
[5] = human, 25 mg per day, human, 25 mg per day, Day 1
[6] = human, 25 mg per day, human, 25 mg per day, Day 10
[7] = human, 50 mg per day, human, 50 mg per day, Day 1
[8] = human, 50 mg per day, human, 50 mg per day, Day 10

AUC ([1]; single dose 5 mg): 931 ng·h/mL
Cmax ([1]; single dose 5 mg): 27.3 ng/mL
Tmax ([1]; single dose 5 mg): 2 h
AUC ([1]; single dose 10 mg): 1820 ng·h/mL
Cmax ([1]; single dose 10 mg): 52.7 ng/mL
Tmax ([1]; single dose 10 mg): 2.5 h
AUC ([1]; single dose 25 mg): 17200 ng·h/mL
Cmax ([1]; single dose 25 mg): 119 ng/mL
half-life ([1]; single dose 25 mg): 183 h
Tmax ([1]; single dose 25 mg): 2.5 h
AUC ([1]; single dose 50 mg): 33600 ng·h/mL
Cmax ([1]; single dose 50 mg): 276 ng/mL
half-life ([1]; single dose 50 mg): 171 h
Tmax ([1]; single dose 50 mg): 3 h
AUC ([1]; single dose 100 mg): 74400 ng·h/mL
Cmax ([1]; single dose 100 mg): 475 ng/mL
half-life ([1]; single dose 100 mg): 181 h
Tmax ([1]; single dose 100 mg): 2 h
AUC ([1]; single dose 200 mg): 148000 ng·h/mL
Cmax ([1]; single dose 200 mg): 944 ng/mL
half-life ([1]; single dose 200 mg): 169 h
Tmax ([1]; single dose 200 mg): 4 h
Absorption ([1]; single oral doses 5 to 200 mg): rapidly absorbed
Absorption ([2]; human, 10, 25 or 50 mg per day for 10 days): rapidly absorbed
Accumulation relative to the single dose ([2]; human, daily dosing for 10 days): approximately 5 fold
Cmax ([2]; human, 10 mg per day, human, 10 mg per day, Day 1, after 10 hour fast): 48.6 ng/mL
AUC [2, 3]: 673 ng·h/mL
Tmax [2, 3]: 3 h
Cmax ([2]; human, 10 mg per day, human, 10 mg per day, Day 10, after 10 hour fast): 180 ng/mL
AUC [2, 4]: 3590 ng·h/mL
Tmax [2, 4]: 3 h
Cmax ([2]; human, 25 mg per day, human, 25 mg per day, Day 1, after 10 hour fast): 139 ng/mL
AUC [2, 5]: 1950 ng·h/mL
Tmax [2, 5]: 2 h
Cmax ([2]; human, 25 mg per day, human, 25 mg per day, Day 10, after 10 hour fast): 491 ng/mL
AUC [2, 6]: 9720 ng·h/mL
Tmax [2, 6]: 2 h
Cmax ([2]; human, 50 mg per day, human, 50 mg per day, Day 1, after 10 hour fast): 254 ng/mL
AUC [2, 7]: 3400 ng·h/mL
Tmax [2, 7]: 3 h
Cmax ([2]; human, 50 mg per day, human, 50 mg per day, Day 10, after 10 hour fast): 895 ng/mL
AUC [2, 8]: 17700 ng·h/mL
Tmax [2, 8]: 2.5 h
half-life ([2]; human, 10 mg per day, Day 10): 238 h
half-life ([2]; human, 50 mg per day, Day 10): 172 h
Compound: C[C@@H](OC[C@@]1(c2ccccc2)CC[C@]2(CCC(=O)N2)CN1)c1cc(C(F)(F)F)cc(C(F)(F)F)c1 [(5S,8S)-8-[{(1R)-1-(3,5-Bis-(trifluoromethyl)phenyl]-ethoxy}-methyl]-8-phenyl-1,7-diazaspiro[4,5]decan-2-one]
